Measured values taken from US20150141274A1, “Methods and Compositions for Activity Dependent Transcriptome Profiling” (The Rockefeller University, priority 2012, published 2015).
No end group written: not given here.

Experiments:
[1] = molecular target: T1, K-opioid receptor (KOR) (Mus musculus, UniProt P33534); assay: Food intake and body weight after treatment with KOR antagonists during scheduled or ad libitum feeding; format: in vivo
T1 construct: An intraperitoneal injection of either a selective KOR antagonist (JDTic) or vehicle was administered to mice; from tissue; host or cells: whole animal (wild-type male C57B6/J mice), i.p. or intracerebroventricular dosing
T1 sequence (P33534 whole entry): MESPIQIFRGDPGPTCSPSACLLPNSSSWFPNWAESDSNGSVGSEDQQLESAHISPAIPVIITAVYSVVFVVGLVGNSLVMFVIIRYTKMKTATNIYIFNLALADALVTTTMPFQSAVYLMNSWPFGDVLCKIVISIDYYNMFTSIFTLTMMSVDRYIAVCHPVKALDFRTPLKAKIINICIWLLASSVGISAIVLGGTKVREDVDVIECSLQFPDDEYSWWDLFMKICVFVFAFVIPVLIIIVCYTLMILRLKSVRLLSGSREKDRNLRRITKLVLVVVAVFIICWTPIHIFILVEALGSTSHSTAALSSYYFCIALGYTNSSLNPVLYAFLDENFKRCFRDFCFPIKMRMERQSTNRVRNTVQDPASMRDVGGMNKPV
Experimental: (§1) Wild-type male C57B6/J mice from Jackson laboratories were maintained on a 8 pm:8 am light-dark schedule and were 9-13 weeks old at the time of sacrifice. All dissections were performed between noon and 2 pm except as noted. For osmotic stimulation experiments, animals were given an intraperitoneal injection of 2M NaCl (350 μL), water was removed from the cage, and mice were sacrificed 120-140 min later. For fasting experiments, animals were transferred to a new cage without food at 5 pm and then sacrificed at 8 am the following morning. Control mice were fed ad libitum and sacrificed at the same time. For ghrelin experiments, animals were given an intraperitoneal injection of ghrelin (66 μg, Tocris), food was removed from the cage, and animals were dissected 70 min later. For scheduled feeding, animals were allowed access to food between noon and 3 pm each day, and then sacrificed between 1:45 and 2 pm after a minimum of 10 days on this schedule.
JDTic was either delivered by intraperitoneal injection (10 mg/kg) or was reconstituted in PBS to a concentration of 1 mg/mL and 5 ul was delivered via Hamilton syringe into the lateral ventricle using coordinates: L/M 1.0 mm from Bregma, A/P −0.4 mm from Bregma and 2.5 mm beneath the cortex. Norbinaltorphimine was delivered at the same dose and coordinates as described above.

[2] = tested on: pS6 and c-fos; format: in vivo, mouse; settings: intraperitoneal: cocaine 30 mg/kg 60 min, kainate 12.5 mg/kg 120 min, haloperidol 2 mg/kg 30 min, olanzapine 20 mg/kg 120 min, clozapine 10 mg/kg 45 min; ghrelin
Experimental: as §1

[3] = tested on: pS6; assay: Hypothalamic immunostaining for pS6; format: in vivo, mouse
Experimental: as §1, with “For fasting experiments, animals were transferred to a new cage without food at 5 pm and then sacrificed at 8 am the following morning.” left out
Mice were sacrified at the indicated times by isoflurane anesthesia followed by transcardial perfusion with PBS and then 10% formalin. Brains were dissected, incubated in 10% formalin overnight at 4° C., and 40 μm sections were prepared on a vibratome. Free floating sections were blocked for 1 h at room temperature in buffer E (PBS, 0.1% Triton, 2% goat serum, 3% BSA), and then stained overnight at 4° C. with primary antibodies at the indicated concentrations. For pS6 244 staining, the pS6 240/244 polyclonal antibody (Cell Signaling, #2215) was combined with the 3P peptide (250 nM final concentration). […]
Images were acquired using an LSM510 laser scanning confocal microscope. pS6 was quantified in specific neuronal populations as follows. […] The surfaces corresponding to each labelled cell in the field (e.g. each POMC cell) were reconstructed using Imaris software (Bitplane), and the mean intensity in the pS6 channel within the volume bounded by the surface of each labelled cell was recorded. […] In cases where the absolute number of pS6 positive cells within an anatomic region was desired (e.g. Pdyn neurons in the DMH), the number of pS6 positive and negative cells was counted manually.

[4] = tested on: hypothalamus; assay: Phosphorylated ribosome profiling (Taqman array) of hypothalamus after salt challenge; format: in vivo, mouse; settings: 2M NaCl 350 μL intraperitoneal, 120-140 min; 3P peptide
Experimental: (§2) Mice were sacrificed by cervical dislocation. […] Homogenates were transferred to a microcentrifuge tube and clarified at 2000×g for 10 min at 4° C. […] This solution was mixed and then clarified at 17000×g for 10 min at 4° C. The resulting high-speed supernatant was transferred to a new tube, and 20 μL of a 0.05 mM stock solution of 3P peptide was added. A 20 μL aliquot of this solution was removed, transferred to a new tube containing 350 μL buffer RLT (Qiagen), and stored at −80° C. for purification as input RNA. The remainder was used for immunoprecipitation.
(§3) Immunoprecipitations were allowed to proceed 10 min at 4° C. […] During the third wash the beads were transferred to a new tube and allowed to incubate at RT for 10 min. […] RNA assessed using an Agilent 2100 bioanalyzer.
as §1, with “For fasting experiments, animals were transferred to a new cage without food at 5 pm and then sacrificed at 8 am the following morning.” left out
(§4) Taqman probes were designed and ordered for quantification of each of the 225 genes described in Table 4. Probes were distributed to 96-well plates in duplicate, cDNA was prepared using the Quantitect RT kit (Qiagen), and reactions were run using the Taqman Gene Expression Master Mix (ABI) on an Applied Biosystems 7900HT system. For each experiment (stimulus or control), the abundance of each gene in the input RNA and in the pS6 immunoprecipitated RNA was measured in duplicate. The mean RNA abundance was determined, normalized to an rpL27 probe that was present in every plate, and the ratio (IP/Input) was calculated. The experiment was repeated multiple times for each stimulus or control, these values were averaged, and the differential enrichment was calculated (ratio of (IP/Input) stimulus over control). Note that the differential enrichment was calculated because the neuronal markers that become enriched or depleted specifically in response to the stimulus was of interest. Normalization to the control group accounts for the fact that each neural marker has a somewhat different enrichment at baseline, reflecting the fact that each cell-population has somewhat different level of basal pS6. Follow-up analysis focused in every case on the most highly enriched genes in the experiment, which were validated directly by histology.

[5] = tested on: hypothalamus; settings: 2 M NaCl 15 μL/g intraperitoneal, 2 hours; pS6 240/244 antibody without 3P peptide
Experimental: Magnetic beads were loaded by incubating 150 μL of Protein A Dynabeads (Invitrogen) with 4 μg of pS6 antibody in Buffer A (10 mM HEPES [pH 7.4], 150 mM KCl, 5 mM MgCl2, 1% NP40, 0.05% IgG-free BSA). Loading was allowed to proceed at 4° C. for a minimum of 1 day. Beads were washed three times with Buffer A immediately before use.
Mice were sacrificed by cervical dislocation. The hypothalamus was rapidly dissected in Buffer B on ice (1×HBSS, 4 mM NaHCO3, 2.5 mM HEPES [pH 7.4], 35 mM Glucose, 100 μg/mL cycloheximide). […] Samples were homogenized three times at 250 rpm and nine times at 750 rpm on a variable-speed homogenizer (Glas-Col) at 4° C. Homogenates were transferred to a microcentrifuge tube and clarified for 10 minutes at 4000 rpm at 4° C. The supernatant was then removed and transferred to a new tube on ice. […]
Immunoprecipitations were allowed to proceed for 30-60 min at 4° C. […] RNA quality was quantified using a NanoDrop spectrophotometer and the quality assessed using an Agilent 2100 bioanalyzer. […] For Taqman analysis, cDNA was prepared using the Sensiscript RT kit (Qiagen) and analyzed using an Applied Biosystems 7900HT system. […]
The ratio of the signal intensities for each gene in the IP (immunoprecipitation) and input was calculated for each experiment, these values were averaged across replicates, and all genes were sorted according to their fold-enrichment.

[6] = molecular target: phosphorylated ribosomal protein S6 (mouse), in ribosomes of cell lysates (Mus musculus) (UniProt P62754); assay: immunoprecipitation of ribosomes from MEF lysates, recovered RNA quantified by Bioanalyzer
[7] = molecular target: phosphorylated ribosomal protein S6 (mouse), in ribosomes of cell lysates (Mus musculus) (UniProt P62754); assay: immunoprecipitation of ribosomes from MEF lysates, recovered RNA quantified
[8] = tested on: hypothalamus; assay: Phosphorylated ribosome profiling (Taqman array) of hypothalamus after ghrelin injection; format: in vivo, mouse; settings: ghrelin 66 μg intraperitoneal, 70 min
Experimental: as §2, §3
Wild-type male C57B6/J mice from Jackson laboratories were maintained on a 8 pm:8 am light-dark schedule and were 9-13 weeks old at the time of sacrifice. All dissections were performed between noon and 2 pm except as noted. […]
as §4, with “Normalization to the control group accounts for the fact that each neural marker has a somewhat different enrichment at baseline, reflecting the fact that each cell-population has somewhat different level of basal pS6. Follow-up analysis focused in every case on the most highly enriched genes in the experiment, which were validated directly by histology.” left out

[9] = ad libitum fed animals, intraperitoneal injection
[10] = scheduled feeding, intraperitoneal injection 10 mg/kg, single dose

Compound: JDTic
- body weight [1, 9]: no impact
- food intake [1, 9]: no impact
- body weight relative to the control group [1, 10]: more rapid regain
- food intake relative to the control group [1, 10]: increased more rapidly

Compound: O=C(CCCN1CCC(O)(c2ccc(Cl)cc2)CC1)c1ccc(F)cc1 [haloperidol]
- co-localization of pS6 and c-fos in brain regions [2]: induce co-localization of pS6 and c-fos

Compound: [Cl-].[Na+] [salt, NaCl]
- pS6 staining in PVN, SON and median eminence of the hypothalamus ([3]; salt challenge, 2M NaCl versus vehicle (PBS), pS6 244 staining): induced an increase in pS6
- enrichment of Cxcl1 in pS6 immunoprecipitates, salt challenged relative to controls [4]: 13 fold
- enrichment of Fezf2 in pS6 immunoprecipitates, salt challenged relative to controls [4]: 5.5 fold
- enrichment of FosB in pS6 immunoprecipitates, salt challenged relative to controls [4]: 38 fold
- enrichment of Nhlh2 in pS6 immunoprecipitates, salt challenged relative to controls [4]: 7.3 fold
- enrichment of Sim1 in pS6 immunoprecipitates, salt challenged relative to controls [4]: 4.0 fold
- enrichment of corticotropin releasing hormone (Crh) in pS6 immunoprecipitates, salt challenged relative to controls [4]: 10 fold
- enrichment of galanin (Gal) in pS6 immunoprecipitates, salt challenged relative to controls [4]: 4.6 fold
- enrichment of oxytocin (Oxt) in pS6 immunoprecipitates, salt challenged relative to controls [4]: 14 fold
- enrichment of prodynorphin (Pdyn) in pS6 immunoprecipitates, salt challenged relative to controls [4]: 3.4 fold
- enrichment of relaxin-1 (Rln1) in pS6 immunoprecipitates, salt challenged relative to controls [4]: 6.1 fold
- enrichment of somatostatin (Sst) in pS6 immunoprecipitates, salt challenged relative to controls [4]: 3.1 fold
- enrichment of urocortin-3 (Ucn3) in pS6 immunoprecipitates, salt challenged relative to controls [4]: 5.3 fold
- enrichment of vasopressin (Avp) in pS6 immunoprecipitates, salt challenged relative to controls [4]: 49 fold
- enrichment of Avp in pS6 IPs from salt challenged animals relative to controls, by Taqman [5]: 7.9 fold

Compound: Oc1ccc2c3c1O[C@H]1c4[nH]c5c(c4C[C@@]4(O)[C@@H](C2)N(CC2CC2)CC[C@]314)C[C@@]1(O)[C@H]2Cc3ccc(O)c4c3[C@@]1(CCN2CC1CC1)[C@H]5O4 [norbinaltorphimine]
- increase in food intake ([1]; scheduled feeding, intracerebroventricular injection): more than 50%

Compound: rabbit anti-pS6 240/244 polyclonal antibody (Cell Signaling #2215)
- fold more RNA isolated in immunoprecipitate, wild-type MEFs against S6^S5A controls [6]: 100 fold
- fold more RNA associated with immunoprecipitate, wild-type MEFs against S6S5A cells [7]: 100 fold

Compound: ghrelin (GSSFLSPEHQRVQQRKESKKPPAKLQPR; not fully specified (residue 3); ends and bridges not checked; UniProt Q9UBU3 24-51, looked up) [the hormone ghrelin (Tocris)]
- co-localization of pS6 and c-fos in brain regions [2]: extensive co-localization of c-fos and pS6
- enrichment of AgRP in pS6 immunoprecipitates relative to controls [8]: 27 fold
- enrichment of NPY in pS6 immunoprecipitates relative to controls [8]: 21 fold
- enrichment of the ghrelin receptor in pS6 immunoprecipitates relative to controls [8]: 7.1 fold
- pS6 levels in the compact part of the DMH ([3]; ghrelin IP injection, 1 h): did not increase
- pS6 staining in the Arc ([3]; ghrelin IP injection, 1 h): induced strong pS6

Compound: C=C(C)[C@H]1CN[C@H](C(=O)O)[C@H]1CC(=O)O [kainate]
- co-localization of pS6 and c-fos in brain regions [2]: induce co-localization of pS6 and c-fos
